Results: patent publication US11612604B2, “Methods of treating cancer with PLK4 inhibitors” (LUDWIG INSTITUTE FOR CANCER RESEARCH LTD, priority 2017, dated 2023)

molecular target: T1, PLK4 (Homo sapiens, UniProt O00444); test: Activity (IC50) of the Table 1 compounds as PLK4 inhibitors; type: biochemical; conditions: Table 1, IC50 class
T1 sequence (O00444 1-970): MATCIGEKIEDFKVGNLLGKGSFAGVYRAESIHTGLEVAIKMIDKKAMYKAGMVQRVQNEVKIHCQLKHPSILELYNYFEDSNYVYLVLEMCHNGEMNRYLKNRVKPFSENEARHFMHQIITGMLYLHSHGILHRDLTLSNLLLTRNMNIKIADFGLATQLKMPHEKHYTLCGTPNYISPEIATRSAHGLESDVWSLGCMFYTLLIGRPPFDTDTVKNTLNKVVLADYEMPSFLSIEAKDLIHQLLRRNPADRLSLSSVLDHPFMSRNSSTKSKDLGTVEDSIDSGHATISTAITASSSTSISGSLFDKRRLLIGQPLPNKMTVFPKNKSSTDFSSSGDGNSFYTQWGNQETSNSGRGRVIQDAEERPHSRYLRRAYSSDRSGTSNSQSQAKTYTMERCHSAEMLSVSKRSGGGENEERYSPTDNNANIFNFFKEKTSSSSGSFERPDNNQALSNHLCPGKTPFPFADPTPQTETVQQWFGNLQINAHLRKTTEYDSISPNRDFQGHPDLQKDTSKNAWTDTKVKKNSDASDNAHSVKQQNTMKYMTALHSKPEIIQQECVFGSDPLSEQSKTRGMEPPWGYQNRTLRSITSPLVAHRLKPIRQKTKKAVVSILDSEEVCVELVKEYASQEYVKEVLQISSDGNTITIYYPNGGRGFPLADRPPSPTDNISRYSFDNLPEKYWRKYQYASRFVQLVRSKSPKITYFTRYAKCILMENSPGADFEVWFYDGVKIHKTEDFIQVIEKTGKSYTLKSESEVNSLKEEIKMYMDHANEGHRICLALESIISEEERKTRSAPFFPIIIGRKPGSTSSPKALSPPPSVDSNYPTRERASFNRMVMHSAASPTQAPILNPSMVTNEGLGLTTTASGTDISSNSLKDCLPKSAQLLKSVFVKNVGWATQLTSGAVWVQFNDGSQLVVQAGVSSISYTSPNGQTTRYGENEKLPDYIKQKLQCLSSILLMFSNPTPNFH

| IC50 [nM] | SMILES |
| --- | --- |
| < 100 | COc1c(Nc2cc(C)[nH]n2)nc(Sc2ccc(NC(=O)C3CC3)cc2)nc1N1CCOCC1 |
| < 100 | COc1c(Nc2cc(C)[nH]n2)nc(Sc2ccc(NC(=O)C3CC3)cc2)nc1N1CCNCC1 |
| < 100 | COCCNc1nc(Sc2ccc(NC(=O)C3CC3)cc2)nc(Nc2cc(C)[nH]n2)c1OC |
| < 100 | COc1c(Nc2cc(C)[nH]n2)nc(Sc2ccc(S(=O)(=O)Cc3ccccc3)cc2)nc1N1CCN(CCN2CCC2)CC1 |
| < 100 | COc1c(Nc2cc(C)[nH]n2)nc(Sc2ccc(S(=O)(=O)Cc3ccccc3NC(C)=O)cc2)nc1N1CCN(CCN(C)C)CC1 |
| < 100 | COc1c(Nc2cc(C)[nH]n2)nc(Sc2ccc(S(=O)(=O)Cc3ccccc3C(F)(F)F)cc2)nc1N1CCN(CCN(C)C)CC1 |
| < 100 | COc1c(Nc2cc(C)[nH]n2)nc(Sc2ccc(S(=O)(=O)Cc3ccccc3N(C)C)cc2)nc1N1CCN(CCN(C)C)CC1 |
| < 100 | COc1c(Nc2cc(C)[nH]n2)nc(Sc2ccc(S(=O)(=O)Cc3ccccc3-c3ccccc3)cc2)nc1N1CCN(CCN(C)C)CC1 |
| < 100 | COc1c(Nc2cc(C)[nH]n2)nc(Sc2ccc(S(=O)(=O)Cc3ccccc3C#N)cc2)nc1N1CCN(CCN(C)C)CC1 |
| < 100 | COc1c(Nc2cc(C)[nH]n2)nc(Sc2ccc(S(=O)(=O)Cc3cccc(C(=O)N(C)C)c3)cc2)nc1N1CCN(CCN(C)C)CC1 |
| < 100 | COc1c(Nc2cc(C)[nH]n2)nc(Sc2ccc(S(=O)(=O)Cc3ccccc3C(N)=O)cc2)nc1N1CCN(CCN(C)C)CC1 |
| < 100 | COc1c(Nc2cc(C)[nH]n2)nc(Sc2ccc(S(=O)(=O)Cc3ccccc3)cc2)nc1N1CCC(CCN2C3CCCC2CC3)CC1 |
| < 100 | COc1c(Nc2cc(C)[nH]n2)nc(Sc2ccc(S(=O)(=O)Cc3cccc([N+](=O)[O-])c3)cc2)nc1N1CCOC[C@H]1C |
| < 100 | COc1c(Nc2cc(C)[nH]n2)nc(Sc2ccc(S(=O)(=O)Cc3ccccc3)cc2)nc1N1CCN(C2CCNCC2)CC1 |
| < 100 | COc1c(Nc2cc(C)[nH]n2)nc(Sc2ccc(S(=O)(=O)Cc3ccccc3)cc2Cl)nc1N1CCN(CCN(C)C)CC1 |
| < 100 | COc1c(Nc2cc(C)[nH]n2)nc(Sc2ccc(S(=O)(=O)Cc3cccc([N+](=O)[O-])c3)cc2)nc1N1CCO[C@H](C)C1 |
| < 100 | COc1c(Nc2cc(C)[nH]n2)nc(Sc2ccc(S(=O)(=O)Cc3cccc([N+](=O)[O-])c3)cc2)nc1N1CCO[C@@H](C)C1 |
| < 100 | COc1c(Nc2cc(C)[nH]n2)nc(Sc2ccc(S(=O)(=O)Cc3cccc(NC(C)=O)c3)cc2)nc1N1CCN(CCN(C)C)CC1 |
| < 100 | COc1c(Nc2cc(C)[nH]n2)nc(Sc2ccc(S(=O)(=O)Cc3cccc(N(C)C)c3)cc2)nc1N1CCN(CCN(C)C)CC1 |
| < 100 | COC(=O)c1ccccc1CS(=O)(=O)c1ccc(Sc2nc(Nc3cc(C)[nH]n3)c(OC)c(N3CCN(CCN(C)C)CC3)n2)cc1 |
| < 100 | COc1c(Nc2cc(C)[nH]n2)nc(Sc2ccc(S(=O)(=O)Cc3ccccc3C(=O)N(C)C)cc2)nc1N1CCN(CCN(C)C)CC1 |

| IC50 [nM] | SMILES |
| --- | --- |
| < 100 | COc1c(Nc2cc(C)[nH]n2)nc(Sc2ccc(S(=O)(=O)Cc3cccc(C(=O)O)c3)cc2)nc1N1CCN(CCN(C)C)CC1 |
| < 100 | COc1c(Nc2cc(C)[nH]n2)nc(Sc2ccc(S(=O)(=O)Cc3ccccc3C(=O)O)cc2)nc1N1CCN(CCN(C)C)CC1 |
| < 100 | COc1ccc([N+](=O)[O-])cc1CS(=O)(=O)c1ccc(Sc2nc(Nc3cc(C)[nH]n3)c(OC)c(N3CCN(CCN(C)C)CC3)n2)cc1 |
| < 100 | COc1c(CS(=O)(=O)c2ccc(Sc3nc(Nc4cc(C)[nH]n4)c(OC)c(N4CCN(CCN(C)C)CC4)n3)cc2)cccc1[N+](=O)[O-] |
| < 100 | COc1c(Nc2cc(C)[nH]n2)nc(Sc2ccc(S(=O)(=O)Cc3cc([N+](=O)[O-])ccc3F)cc2)nc1N1CCN(CCN(C)C)CC1 |
| < 100 | COc1c(Nc2cc(C)[nH]n2)nc(Sc2ccc(S(=O)(=O)Cc3cccc([N+](=O)[O-])c3)cc2F)nc1N1CCN(CCN(C)C)CC1 |
| < 100 | COc1c(Nc2cc(C)[nH]n2)nc(Sc2ccc(S(=O)(=O)Cc3cccc([N+](=O)[O-])c3F)cc2)nc1N1CCCCC1 |
| < 100 | COc1c(Nc2cc(C)[nH]n2)nc(Sc2ccc(S(=O)(=O)Cc3cc(F)cc([N+](=O)[O-])c3)cc2)nc1N1CCN(CCN(C)C)CC1 |
| < 100 | COc1c(Nc2cc(C)[nH]n2)nc(Sc2ccc(S(=O)(=O)Cc3cccc([N+](=O)[O-])c3Cl)cc2)nc1N1CCN(CCN(C)C)CC1 |
| < 100 | COc1c(Nc2cc(C)[nH]n2)nc(Sc2ccc(S(=O)(=O)Cc3cccc([N+](=O)[O-])c3F)cc2F)nc1N1CCN(CCN(C)C)CC1 |
| < 100 | COc1c(Nc2cc(C)[nH]n2)nc(Sc2ccc(S(=O)(=O)Cc3cccc([N+](=O)[O-])c3)cc2F)nc1N1CCOCC1 |
| < 100 | COc1c(Nc2cc(C)[nH]n2)nc(Sc2ccc(S(=O)(=O)Cc3cccc([N+](=O)[O-])c3)cc2F)nc1N1CCOC[C@@H]1C |
| < 100 | COc1c(Nc2cc(C)[nH]n2)nc(Sc2ccc(S(=O)(=O)Cc3cccc([N+](=O)[O-])c3C#N)cc2)nc1N1CCN(CCN(C)C)CC1 |
| < 100 | COc1c(Nc2cc(C)[nH]n2)nc(Sc2ccc(S(=O)(=O)Cc3cccc([N+](=O)[O-])c3F)cc2)nc1N1CCC(O)CC1 |
| < 100 | COc1c(Nc2cc(C)[nH]n2)nc(Sc2ccc(S(=O)(=O)Cc3cccc([N+](=O)[O-])c3O)cc2)nc1N1CCN(CCN(C)C)CC1 |
| < 100 | COc1c(Nc2cc(C)[nH]n2)nc(Sc2ccc(S(=O)(=O)Cc3cccc([N+](=O)[O-])c3)cc2)nc1N1C2CCC1COC2 |
| < 100 | COc1c(Nc2cc(C)[nH]n2)nc(Sc2ccc(S(C)(=O)=O)cc2F)nc1N1CCC(CCN(C)C)CC1 |
| < 100 | COc1c(Nc2cc(C)[nH]n2)nc(Sc2ccc(S(C)(=O)=O)cc2F)nc1N1CCN(CCN(C)C)CC1 |
| < 100 | COc1c(Nc2cc(C)[nH]n2)nc(Sc2ccc(S(C)(=O)=O)cc2Cl)nc1N1CCN(CCN(C)C)CC1 |
| < 100 | COc1c(Nc2cc(C)[nH]n2)nc(Sc2ccc(S(C)(=O)=O)cc2Cl)nc1N1CCC(CCN(C)C)CC1 |
| < 100 | CCS(=O)(=O)c1ccc(Sc2nc(Nc3cc(C)[nH]n3)c(OC)c(N3CCOCC3)n2)c(Cl)c1 |

| IC50 [nM] | SMILES |
| --- | --- |
| < 100 | COc1c(Nc2cc(C)[nH]n2)nc(Sc2ccc(S(=O)(=O)Cc3cccc([N+](=O)[O-])c3F)cc2F)nc1N1CCOC[C@H]1C |
| < 100 | COc1c(Cc2cc(C)[nH]n2)nc(Sc2ccc(S(=O)(=O)Cc3cccc([N+](=O)[O-])c3)cc2F)nc1N1CCOC[C@H]1C |
| < 100 | CCS(=O)(=O)c1ccc(Sc2nc(Nc3cc(C)[nH]n3)c(OC)c(N3CCN(CCN(C)C)CC3)n2)c(Cl)c1 |
| < 100 | CCS(=O)(=O)c1ccc(Sc2nc(Nc3cc(C)[nH]n3)c(OC)c(N3CCN(C)CC3)n2)c(Cl)c1 |
| < 100 | CCS(=O)(=O)c1ccc(Sc2nc(Nc3cc(C)[nH]n3)c(OC)c(N3CCN(CCN(C)C)CC3)n2)c(F)c1 |
| < 100 | CCS(=O)(=O)c1ccc(Sc2nc(Nc3cc(C)[nH]n3)c(OC)c(N3CCC(CCN(C)C)CC3)n2)c(F)c1 |
| < 100 | CCS(=O)(=O)c1ccc(Sc2nc(Cc3cc(C)[nH]n3)c(OC)c(N3CCOC[C@@H]3C)n2)c(Cl)c1 |
| < 100 | COc1c(Cc2cc(C)[nH]n2)nc(Sc2ccc(S(C)(=O)=O)cc2F)nc1N1CCOC[C@@H]1C |
| < 100 | COc1c(Nc2cc(C)[nH]n2)nc(Sc2ccc(S(=O)(=O)Cc3cccc(F)c3F)cc2F)nc1N1CCCCC1 |
| < 100 | COc1c(Nc2cc(C)[nH]n2)nc(Sc2ccc(S(=O)(=O)Cc3cccc(F)c3F)cc2F)nc1N1CCOCC1 |
| < 100 | COc1c(Nc2cc(C)[nH]n2)nc(Sc2ccc(S(=O)(=O)Cc3cccc(F)c3F)cc2F)nc1N1CCN(CCN(C)C)CC1 |
| < 100 | COc1c(Cc2cc(C)[nH]n2)nc(Sc2ccc(S(=O)(=O)Cc3cccc(F)c3F)cc2F)nc1N1CCOC[C@@H]1C |
| < 100 | COc1c(Nc2cc(C)[nH]n2)nc(Sc2ccc(S(=O)(=O)Cc3c(F)ccc(F)c3F)cc2F)nc1N1CCN(CCN(C)C)CC1 |
| < 100 | COc1c(Nc2cc(C)[nH]n2)nc(Sc2ccc(S(=O)(=O)Cc3cccc([N+](=O)[O-])c3F)cc2F)nc1N1CCOC[C@@H]1C |
| < 100 | COc1c(Nc2cc(C)[nH]n2)nc(Sc2ccc(S(=O)(=O)Cc3cccc([N+](=O)[O-])c3)cc2)nc1N1CCOC[C@@H]1CO |
| < 100 | COc1c(Nc2cc(C)[nH]n2)nc(Sc2ccc(S(=O)(=O)Cc3cccc(Cl)c3F)cc2F)nc1N1CCOCC1 |
| < 100 | COc1c(Nc2cc(C)[nH]n2)nc(Sc2ccc(S(=O)(=O)Cc3cccc(Br)c3F)cc2F)nc1N1CCOCC1 |
| < 100 | COc1c(Nc2cc(C)[nH]n2)nc(Sc2ccc(S(=O)(=O)Cc3c(F)c(F)cc(F)c3F)cc2F)nc1N1CCOCC1 |
| < 100 | COc1c(Nc2cc(C)[nH]n2)nc(Sc2ccc(S(=O)(=O)Cc3cccc(C(F)(F)F)c3F)cc2F)nc1N1CCOCC1 |
| < 100 | COc1c(Nc2cc(C)[nH]n2)nc(Sc2ccc(S(=O)(=O)Cc3cccc(C#N)c3F)cc2F)nc1N1CCOCC1 |
